Source: the NIST ThermoML archive (doi:10.1016/j.tca.2006.02.028)
± gives the expanded uncertainty stated by the source.

Experiment: excess molar enthalpy (molar enthalpy of mixing); xn = mol fraction of the nth substance listed
Settings: 298.15 K, 101 kPa, Liquid, Titration calorimetry

| excess molar enthalpy (x1 = 0.05) [kcal/mol] | excess molar enthalpy (x1 = 0.1) [kcal/mol] | excess molar enthalpy (x1 = 0.15) [kcal/mol] | excess molar enthalpy (x1 = 0.2) [kcal/mol] | excess molar enthalpy (x1 = 0.3) [kcal/mol] | excess molar enthalpy (x1 = 0.4) [kcal/mol] | excess molar enthalpy (x1 = 0.5) [kcal/mol] | excess molar enthalpy (x1 = 0.6) [kcal/mol] | excess molar enthalpy (x1 = 0.7) [kcal/mol] | excess molar enthalpy (x1 = 0.8) [kcal/mol] | excess molar enthalpy (x1 = 0.9) [kcal/mol] | excess molar enthalpy (x1 = 1) [kcal/mol] | excess molar enthalpy (x2 = 0) [kcal/mol] | SMILES |
| --- | --- | --- | --- | --- | --- | --- | --- | --- | --- | --- | --- | --- | --- |
| -0.0779 ± 0.000956 | -0.131 ± 0.00167 | -0.171 ± 0.00191 | -0.193 ± 0.00215 | -0.203 ± 0.00239 | -0.201 ± 0.00215 | -0.186 ± 0.00215 | -0.163 ± 0.00191 | -0.139 ± 0.00167 | -0.0985 ± 0.0012 | -0.0576 ± 0.000717 | 0 ± 0.000239 |  | CO [methanol] + O |
|  |  |  |  |  |  |  |  |  |  |  |  | 0 ± 0.000239 | O [water] + CO |
